Data taken from ChEMBL document CHEMBL1629424, “Does conjugation of antioxidants improve their antioxidative/anti-inflammatory potential?” (Bioorg Med Chem, 2010).
pIC50: −log10 of the molar value. Activity calls are given as the source filed them. No cut-off for these calls is given here.

Tests used:
Glycine max [1] = test: Inhibition of soybean lipoxygenase at 0.05 mM
[2] = Antioxidant activity of the compound assessed as reducing activity of DPPH at 0.1 mM after 20 mins; type: functional; set-up: scale not given: the % may be the effect or the level left
[3] = Antioxidant activity of the compound assessed as reducing activity of DPPH at 0.1 mM after 60 mins; type: functional; set-up: scale not given: the % may be the effect or the level left
[4] = Cytotoxicity against RAMEC assessed as cell viability after 24 hrs by MTT assay; conditions: Rattus norvegicus
Rattus norvegicus = test: Antiinflammatory activity in Fisher rat assessed as inhibition of carrageenan-induced paw oedema at 0.01 mmol/kg, po measured after 3.5 hrs; type: functional
Glycine max [5] = test: Inhibition of soybean lipoxygenase at 0.1 mM
[6] = Antioxidant activity against AAPH-induced lipid peroxidation assessed as inhibition of conjugated diene hydroperoxide production at 0.1 mM by UV spectrophotometry; type: functional
[7] = Inhibition of soybean lipoxygenase; set-up: species or system Glycine max

CC1=C(/C=C/C(C)=C/C=C/C(C)=C/C(=O)O)C(C)(C)CCC1 [TRETINOIN]
inhibition (Glycine max [1]): inactive | Activity [2]: 11% | Activity [3]: 23% | pIC50 [4]: 4.74 | inhibition in vivo at 10 µmol/kg (Rattus norvegicus): 11% | inhibition (Glycine max [5]): inactive | inhibition [6]: 75%

O=C(O)/C=C/c1ccc(O)c(O)c1 [CAFFEIC ACID]
Activity [2]: 5.5% | pIC50 [7]: 3.22 | Activity [3]: 6% | inhibition [6]: 17.5%

Cc1c(C)c2c(c(C)c1O)CCC(C)(C(=O)O)O2 (centres undefined)
inhibition [6]: 63%

O=C1O[C@H]([C@@H](O)CO)C(O)=C1O
Activity [2]: 99% | Activity [3]: 100%

COc1cc(C)c(/C=C/C(C)=C/C=C/C(C)=C/C(=O)NCCCNCCCCNCCCNC(=O)/C=C(C)/C=C/C=C(C)/C=C/c2c(C)cc(OC)c(C)c2C)c(C)c1C
inhibition (Glycine max [1]): inactive | Activity [2]: 26% | Activity [3]: 38% | pIC50 [4]: 5.33 | inhibition in vivo at 10 µmol/kg (Rattus norvegicus): 19% | inhibition (Glycine max [5]): 75% | inhibition [6]: 97%

Cc1oc2c(C)c3oc(=O)cc(C)c3cc2c1/C=C/C(=O)OC(C)(C)C
Activity [2]: 11% | pIC50 [7]: 5.03 | Activity [3]: 11% | pIC50 [4]: 5.54 | inhibition in vivo at 10 µmol/kg (Rattus norvegicus): 46% | inhibition [6]: 80%

N[C@@H](Cc1ccc(O)c(O)c1)C(=O)NCCCNCCCCNCCCNC(=O)[C@@H](N)Cc1ccc(O)c(O)c1
inhibition (Glycine max [1]): inactive | Activity [2]: 89% | Activity [3]: 96% | inhibition (Glycine max [5]): 32% | inhibition [6]: 71%

COc1ccc2c(c1)c(CC(=O)O)c(C)n2C(=O)c1ccc(Cl)cc1 [INDOMETHACIN]
inhibition in vivo at 10 µmol/kg (Rattus norvegicus): 47%

COc1cc(C)c(/C=C/C(C)=C/C=C/C(C)=C/C(=O)NCCc2ccc(O)c(O)c2)c(C)c1C
Activity [2]: 79% | pIC50 [7]: 4.06 | Activity [3]: 79% | inhibition in vivo at 10 µmol/kg (Rattus norvegicus): 13.7% | inhibition [6]: 10%

O=C(CCc1ccc(O)c(O)c1)NCCCNCCCCNCCCNC(=O)CCc1ccc(O)c(O)c1 [KUKOAMINE A]
Activity [2]: 96% | pIC50 [7]: 5.02 | Activity [3]: 100% | pIC50 [4]: 5.46 | inhibition in vivo at 10 µmol/kg (Rattus norvegicus): 43% | inhibition [6]: 72%

CC1=C(/C=C/C(C)=C/C=C/C(C)=C/C(=O)NCCCNCCCCNCCCNC(=O)/C=C/c2c(C)oc3c(C)c4oc(=O)cc(C)c4cc23)C(C)(C)CCC1
inhibition (Glycine max [1]): inactive | Activity [2]: 11% | Activity [3]: 38% | inhibition (Glycine max [5]): 43% | inhibition [6]: 45%

COc1ccc(/C=C/C(=O)NCCOCCOC(=O)/C=C/c2c(C)oc3c(C)c4oc(=O)cc(C)c4cc23)cc1OC
Activity [2]: inactive | pIC50 [7]: 4.19 | Activity [3]: 15% | pIC50 [4]: 4.89 | inhibition in vivo at 10 µmol/kg (Rattus norvegicus): 9% | inhibition [6]: 98%

Cc1oc2c(C)c3oc(=O)cc(C)c3cc2c1/C=C/C(=O)O
inhibition (Glycine max [1]): inactive | Activity [2]: 11% | Activity [3]: 11% | inhibition (Glycine max [5]): 9% | inhibition [6]: 73%

COc1cc(C)c(/C=C/C(C)=C/C=C/C(C)=C/C(=O)NCc2ccccc2)c(C)c1C
Activity [2]: inactive | pIC50 [7]: 4.39 | Activity [3]: 2% | inhibition in vivo at 10 µmol/kg (Rattus norvegicus): 3.6% | inhibition [6]: 45%

O=C(O)CCc1ccc(O)c(O)c1
inhibition (Glycine max [1]): inactive | Activity [2]: 100% | Activity [3]: 100% | inhibition (Glycine max [5]): 16% | inhibition [6]: 47%

COc1ccc(/C=C/C(=O)O)cc1OC
inhibition (Glycine max [1]): inactive | Activity [2]: 9% | Activity [3]: 10% | inhibition (Glycine max [5]): 23% | inhibition [6]: 56%

CCCCNC(=O)/C=C/c1c(C)oc2c(C)c3oc(=O)cc(C)c3cc12
inhibition (Glycine max [1]): inactive | Activity [2]: inactive | Activity [3]: 8.4% | inhibition (Glycine max [5]): 24% | inhibition [6]: 66%

N[C@@H](Cc1ccc(O)c(O)c1)C(=O)O
inhibition (Glycine max [1]): inactive | Activity [2]: 76% | Activity [3]: 76% | inhibition (Glycine max [5]): 23% | inhibition [6]: 65%

N[C@@H](Cc1ccc(O)c(O)c1)C(=O)NCCc1ccc(O)c(O)c1
Activity [2]: 92% | pIC50 [7]: 4.09 | Activity [3]: 92% | inhibition [6]: inactive

O=C(O)/C=C/C(=O)n1cc(C(=O)Nc2ccccc2)c2ccccc21
Activity [2]: 1% | pIC50 [7]: 4.28 | Activity [3]: inactive | inhibition in vivo at 10 µmol/kg (Rattus norvegicus): 11% | inhibition [6]: 85%

CC1=C(/C=C/C(C)=C/C=C/C(C)=C/C(=O)NCCCNCCCCNCCCNC(=O)/C=C(C)/C=C/C=C(C)/C=C/C2=C(C)CCCC2(C)C)C(C)(C)CCC1
inhibition (Glycine max [1]): inactive | Activity [2]: inactive | Activity [3]: 5% | pIC50 [4]: 5.59 | inhibition in vivo at 10 µmol/kg (Rattus norvegicus): 40% | inhibition (Glycine max [5]): 76% | inhibition [6]: 58%

COc1cc(C)c(/C=C/C(C)=C/C=C/C(C)=C/C(=O)NCCCNCCCCNCCCNC(=O)/C=C/c2c(C)oc3c(C)c4oc(=O)cc(C)c4cc23)c(C)c1C
Activity [2]: inactive | pIC50 [7]: 4.38 | Activity [3]: inactive | inhibition [6]: 31%

CC(Cc1ccc(O)c(O)c1)C(C)Cc1ccc(O)c(O)c1 (centres undefined)
Activity [3]: 83%

NCCc1ccc(O)c(O)c1 [DOPAMINE]
Activity [2]: 86% | pIC50 [7]: 4.00 | Activity [3]: 86% | inhibition in vivo at 10 µmol/kg (Rattus norvegicus): 13% | inhibition [6]: 43%

Cc1oc2c(C)c3oc(=O)cc(C)c3cc2c1/C=C/C(=O)NCCCNCCCCNCCCNC(=O)/C=C/c1c(C)oc2c(C)c3oc(=O)cc(C)c3cc12
inhibition (Glycine max [1]): inactive | Activity [2]: 41% | Activity [3]: 54% | inhibition (Glycine max [5]): 57% | inhibition [6]: 33%

NCCCNCCCCNCCCN
inhibition (Glycine max [1]): inactive | Activity [2]: 4% | Activity [3]: 4% | inhibition (Glycine max [5]): inactive | inhibition [6]: inactive

COc1ccc(/C=C/C(=O)NCCOCCOC(=O)/C=C/C(=O)n2cc(C(=O)Nc3ccccc3)c3ccccc32)cc1OC
Activity [2]: inactive | pIC50 [7]: 4.47 | Activity [3]: 12% | inhibition [6]: inactive

CC1=C(/C=C/C(C)=C/C=C/C(C)=C/C(=O)NCCCCCCCCCCCCNC(=O)/C=C(C)/C=C/C=C(C)/C=C/C2=C(C)CCCC2(C)C)C(C)(C)CCC1
inhibition (Glycine max [1]): inactive | Activity [2]: inactive | Activity [3]: 13.4% | pIC50 [4]: 5.55 | inhibition (Glycine max [5]): 23% | inhibition [6]: 41%

COc1cc(C)c(/C=C/C(C)=C/C=C/C(C)=C/C(=O)O)c(C)c1C [ACITRETIN]
inhibition (Glycine max [1]): inactive | Activity [2]: inactive | Activity [3]: inactive | pIC50 [4]: 4.84 | inhibition in vivo at 10 µmol/kg (Rattus norvegicus): 63% | inhibition (Glycine max [5]): 1% | inhibition [6]: 85%

COc1ccc(/C=C/C(=O)NCCCNCCCCNCCCNC(=O)/C=C/c2ccc(OC)c(OC)c2)cc1OC
Activity [2]: 52% | pIC50 [7]: 4.21 | Activity [3]: 58% | pIC50 [4]: 4.95 | inhibition in vivo at 10 µmol/kg (Rattus norvegicus): 42% | inhibition [6]: 100%
